Reference: article PMC9594040, “Structure-Based Discovery of Negative Allosteric Modulators of the Metabotropic Glutamate Receptor 5” (ACS Chemical Biology, 2022)

Each compound was assayed against human mGlu5 (Homo sapiens, UniProt P41594) (assay: Radioligand displacement assay (radiolabeled MPEP) on membranes of HEK293 cells stably expressing mGlu5). Conditions: Ki, radioligand displacement; mean ± SEM of two experiments.
Sequence of human mGlu5 (P41594 21-1212): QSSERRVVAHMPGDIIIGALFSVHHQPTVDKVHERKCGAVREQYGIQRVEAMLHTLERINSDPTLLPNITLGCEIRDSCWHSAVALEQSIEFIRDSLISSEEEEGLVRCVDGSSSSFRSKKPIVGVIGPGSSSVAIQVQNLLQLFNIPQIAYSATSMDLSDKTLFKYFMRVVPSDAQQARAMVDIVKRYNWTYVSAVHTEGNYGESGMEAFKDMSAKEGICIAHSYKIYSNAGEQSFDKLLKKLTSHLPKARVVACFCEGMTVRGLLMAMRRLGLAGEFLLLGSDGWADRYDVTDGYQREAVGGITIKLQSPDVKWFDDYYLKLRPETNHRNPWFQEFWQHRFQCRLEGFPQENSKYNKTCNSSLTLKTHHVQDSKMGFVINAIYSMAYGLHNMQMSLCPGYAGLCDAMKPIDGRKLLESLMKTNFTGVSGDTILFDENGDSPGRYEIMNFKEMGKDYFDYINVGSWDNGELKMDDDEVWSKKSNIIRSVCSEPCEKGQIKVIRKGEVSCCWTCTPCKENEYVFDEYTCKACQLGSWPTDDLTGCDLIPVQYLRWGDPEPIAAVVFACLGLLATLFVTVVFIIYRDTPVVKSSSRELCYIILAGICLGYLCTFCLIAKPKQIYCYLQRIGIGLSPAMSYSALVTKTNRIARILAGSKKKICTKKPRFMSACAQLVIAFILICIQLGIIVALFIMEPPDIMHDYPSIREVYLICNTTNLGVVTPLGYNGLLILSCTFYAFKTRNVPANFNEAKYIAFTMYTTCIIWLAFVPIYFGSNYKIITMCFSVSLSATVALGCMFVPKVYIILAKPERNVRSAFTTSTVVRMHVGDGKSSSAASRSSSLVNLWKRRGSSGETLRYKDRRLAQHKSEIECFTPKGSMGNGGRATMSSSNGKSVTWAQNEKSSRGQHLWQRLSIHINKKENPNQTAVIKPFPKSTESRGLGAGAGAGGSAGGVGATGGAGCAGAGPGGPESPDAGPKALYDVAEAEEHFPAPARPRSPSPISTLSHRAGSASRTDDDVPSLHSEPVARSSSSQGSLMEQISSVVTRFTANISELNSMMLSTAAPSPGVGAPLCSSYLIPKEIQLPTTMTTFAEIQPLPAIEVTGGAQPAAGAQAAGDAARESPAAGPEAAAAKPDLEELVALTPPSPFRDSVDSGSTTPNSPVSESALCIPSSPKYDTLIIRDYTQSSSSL
Protocol: Treated cells were harvested with PBS/2 mM EDTA and washed three times with ice-cold PBS and frozen at −80 °C. The frozen cell pellet was resuspended in membrane buffer (25 mM Tris/7.4, 250 mM sucrose, 2.5 mM EDTA, 2 ug/ml aprotinin, 0.5 ug/ml leupeptin and 200 nM PMSF) and homogenized with a polytron 20–30 s at maximum power. After centrifugation at 18,000 RPM for 30 min at 4 °C, the pellet was resuspended in ice-cold membrane buffer, hand-homogenized, and centrifuged as described above. This pellet was further resuspended in ice-cold membrane buffer. The protein content was measured using the Bradford method with bovine serum albumin as the standard. The membrane homogenate was frozen at −80 °C before use. After thawing, the membranes were washed once and resuspended in ice-cold 50 mM Tris–HCl, 0.9% NaCl, pH 7.4 buffer. All incubations were performed at room temperature. For the displacement binding experiments, 15 μg of membranes were incubated with 5 nM the radioligand in the presence of 10 varying concentrations of the test compound for 2 h at room temperature with shaking. At the end of the respective incubations, the suspension was filtered onto PerkinElmer GF/C glass fiber filters (1450–421) pre-soaked in 0.5% polyethyleneimine and washed rapidly four times using a Tomtec Harvester 96 Mach III cell harvester (Tomtec, Hamden, CT) with 5 mL of cold wash buffer (50 mM Tris–HCl, pH 7.4). The radioactivity trapped on the filters was measured after heat sealing the filters with MeltiLexTM A (PerkinElmer, 1450–441) in a 1450 MicroBeta TriLux counter (PerkinElmer). […] IC50 values were derived from the inhibition curve, and Ki values were calculated according to the Cheng-Prusoff equation of Ki = IC50/(1 + [L]/Kd),[61] where [L] is the concentration of radioligand and Kd is its dissociation constant at the receptor, derived from the saturation isotherm.
Work on `N#Cc1ccc(NCC#Cc2ccccc2)cc1` [F3] yielded a Ki of 3.4 ± 0.2 µM. With `N#Cc1cccc(COc2ccccc2F)c1` [F4] the Ki was 8.6 ± 0.1 µM. `COc1ccc(Cn2cccc2-c2nc(-c3ccncc3)no2)cc1` [L3] was tested, and the Ki was 3.6 ± 0.1 µM. Work on `CN(Cc1cnn(-c2ccccc2)c1)c1noc(-c2ccccc2)n1` [L4] yielded a Ki of 4 ± 0.5 µM. In the case of `CC(c1nc(-c2ccco2)no1)n1nnc(-c2cccc(F)c2)n1` (stereo not shown) [L5], the Ki is reported as 4.3 ± 0.9 µM. In the case of `Cc1nc(-c2ccccc2)sc1C(C)N(C)C(=O)c1cnns1` (stereo not shown) [L6], the Ki is reported as 7.3 ± 1.3 µM. With `CN(Cc1cnn(-c2ccc(F)cc2)c1)c1nc(-c2ccccc2)no1` [L7] the Ki was 7.9 ± 0.6 µM.

Same assay, conditions: Table S1; radioligand displacement at 30 µM; mean ± SEM of two experiments
With `Cc1cccc(NC(=O)Cc2ccc(O)cc2)c1` [F5] the “Inhibition at 30 µM” value was 42 ± 5%. `CCOc1cccc(CNC(=O)C2CC=CC2)c1` [F7] was tested, and the “Inhibition at 30 µM” value was 39 ± 7%. For `CC(=O)c1cccc(NCc2ccccc2)c1` [F9], the “Inhibition at 30 µM” value was 38 ± 1%. `Cc1ccc(C(C)NC(=O)c2ccc(F)cc2)o1` (stereo not shown) [F10] was tested, and the “Inhibition at 30 µM” value was 35 ± 8%. For `N#Cc1ccc(OC/C=C/c2ccccc2)nc1` [F11], the “Inhibition at 30 µM” value was 35 ± 6%. With `COCc1cccc(Nc2cc(Cl)ncn2)c1` [F12] the “Inhibition at 30 µM” value was 35 ± 10%. With `C=CCNC(=O)c1ccc(Oc2ccccc2)o1` [F13] the “Inhibition at 30 µM” value was 35 ± 10%. `Cc1cc(CN(C)C(=O)Nc2ccccc2)on1` [F14] was tested, and the “Inhibition at 30 µM” value was 33 ± 4%. `CC1CC1C(=O)N(C)CCOc1ccccc1` (stereo not shown) [F15] was tested, and the “Inhibition at 30 µM” value was 33 ± 9%. With `CC(C)c1nccn1Cc1nc2ccccc2[nH]1` [F16] the “Inhibition at 30 µM” value was 33 ± 5%. With `c1ccc(-n2cc(CCn3cnnc3)cn2)cc1` [F17] the “Inhibition at 30 µM” value was 33 ± 3%. With `Cc1ccccc1CNc1ccc(F)c(C#N)c1` [F18] the “Inhibition at 30 µM” value was 33 ± 9%. In the case of `COCc1cccc(Nc2ccnc(C#N)c2)c1` [F19], the “Inhibition at 30 µM” value is reported as 32 ± 4%. For `Cn1ccnc1SCC=Cc1ccccc1` [F20], the “Inhibition at 30 µM” value was 31 ± 1%. `CC(c1nc(-c2ccccc2)no1)n1ccnc1` (stereo not shown) [F21] was tested, and the “Inhibition at 30 µM” value was 31 ± 1%. For `CN(Cc1cn2ccccc2n1)c1ccccc1` [F22], the “Inhibition at 30 µM” value was 31 ± 1%. `Cc1ccoc1-c1nc(Cc2ccccc2)n[nH]1` [F23] was tested, and the “Inhibition at 30 µM” value was 30 ± 7%. In the case of `CCn1cnnc1CNC(=O)c1cccc(C)c1` [F24], the “Inhibition at 30 µM” value is reported as 30 ± 1%. In the case of `COc1ccc(CNC(=O)c2csnn2)cc1` [F25], the “Inhibition at 30 µM” value is reported as 28 ± 9%. With `OCc1cccc(NCc2cccc(Cl)c2)c1` [F26] the “Inhibition at 30 µM” value was 28 ± 15%. `CC(O)c1cccc(OCc2ccccc2)c1` (stereo not shown) [F27] was tested, and the “Inhibition at 30 µM” value was 27 ± 3%. With `Oc1ccccc1-c1n[nH]c(-c2ccncc2)n1` [F28] the “Inhibition at 30 µM” value was 27 ± 3%. For `CCN(CC(O)c1ccccc1)c1ccccc1` (stereo not shown) [F29], the “Inhibition at 30 µM” value was 27 ± 1%. With `N#Cc1ccnc(Nc2ccc3c(c2)OCO3)c1` [F30] the “Inhibition at 30 µM” value was 27 ± 3%. With `CN(C)C(=O)c1cc(OCc2ccccc2)no1` [F32] the “Inhibition at 30 µM” value was 27 ± 1%. With `Cc1ccccc1NC(=O)c1ccnc(Cl)c1` [F33] the “Inhibition at 30 µM” value was 26 ± 11%. For `O=C(Nc1ccccc1F)OCc1cccnc1` [F34], the “Inhibition at 30 µM” value was 26 ± 4%. For `OC(c1ccccc1)c1nc2cc(F)ccc2[nH]1` (stereo not shown) [F35], the “Inhibition at 30 µM” value was 25 ± 12%. In the case of `O=C(NCc1ccncc1)c1cccc(Cl)c1` [F36], the “Inhibition at 30 µM” value is reported as 25 ± 3%. `O=C(CNC(=O)c1ccco1)Nc1ccccc1` [F37] was tested, and the “Inhibition at 30 µM” value was 25 ± 4%. With `c1ccc(Cn2nnc(-c3ccncc3)n2)cc1` [F38] the “Inhibition at 30 µM” value was 25 ± 3%. `Cc1cccc(C(=O)NC(C)c2ccncc2)n1` (stereo not shown) [F39] was tested, and the “Inhibition at 30 µM” value was 24 ± 9%. `CC[C@H](Nc1cnn(CC)c1)c1ccc(C)cc1` [F40] was tested, and the “Inhibition at 30 µM” value was 24 ± 7%. For `Clc1ncnc2cc(-c3ccccc3)[nH]c12` [F41], the “Inhibition at 30 µM” value was 24 ± 2%. In the case of `COc1ccc(CNC(=O)c2ccncc2)cc1` [F42], the “Inhibition at 30 µM” value is reported as 24 ± 8%. With `c1ccc(-c2nsc(-n3ccnc3)n2)cc1` [F43] the “Inhibition at 30 µM” value was 23 ± 2%. For `C#Cc1cccc(NC(C)c2ccccc2)c1` (stereo not shown) [F44], the “Inhibition at 30 µM” value was 23 ± 4%. With `CC(C)C(=O)N(C)Cc1nc2ccccc2[nH]1` [F45] the “Inhibition at 30 µM” value was 22 ± 9%. For `CC[C@@H]1CCCC(C(=O)Nc2ccccc2)=C1O` [F46], the “Inhibition at 30 µM” value was 22 ± 1%. `CC(O)c1ccc(OCc2ccc(F)cc2)cc1` (stereo not shown) [F47] was tested, and the “Inhibition at 30 µM” value was 21 ± 3%. In the case of `CN(CCc1ccccn1)c1ccc(Cl)nn1` [F48], the “Inhibition at 30 µM” value is reported as 21 ± 1%. In the case of `C=CCN1CC(c2nc3ccccc3[nH]2)CC1=O` (stereo not shown) [F49], the “Inhibition at 30 µM” value is reported as 20 ± 1%. With `CC(=O)c1nc(Nc2ccccc2)sc1C` [F50] the “Inhibition at 30 µM” value was 20 ± 9%. `Nc1ccccc1Sc1nc2ccccc2[nH]1` [F51] was tested, and the “Inhibition at 30 µM” value was 20 ± 14%. With `CCC(NC(=O)c1ccccn1)c1ccccc1` (stereo not shown) [F52] the “Inhibition at 30 µM” value was 19 ± 5%. With `Cc1cc(Cn2ccc(-c3ccccc3)n2)on1` [F53] the “Inhibition at 30 µM” value was 19 ± 2%. `Fc1ccc(F)c(NCCCn2ccnc2)c1` [F55] was tested, and the “Inhibition at 30 µM” value was 19 ± 5%. In the case of `Clc1cccc(OCCCn2ccnc2)c1` [F56], the “Inhibition at 30 µM” value is reported as 18 ± 4%. For `COCc1ccc(CNc2ncccc2F)cc1` [F57], the “Inhibition at 30 µM” value was 17 ± 3%. In the case of `Cc1cccn2cc(Cn3ccccc3=O)nc12` [F58], the “Inhibition at 30 µM” value is reported as 16 ± 5%. In the case of `Nc1ccccc1-c1nc2cc(F)c(F)cc2[nH]1` [F59], the “Inhibition at 30 µM” value is reported as 9 ± 1%. `N#Cc1cc(CNc2ccn(-c3ncccc3Cl)n2)ccc1F` [L10] was tested, and the “Inhibition at 30 µM” value was 41 ± 7%. With `O=C(NCc1ccc(N2CCCC2)nc1)c1cnn(-c2ccccc2)c1` [L11] the “Inhibition at 30 µM” value was 40 ± 4%. `O=C(NCc1ccc(-n2cccn2)cc1)c1cc2ccccc2s1` [L12] was tested, and the “Inhibition at 30 µM” value was 39 ± 6%. `CC1CN(C(=O)Nc2cccc(C#N)c2)CC(c2ccccc2)O1` (stereo not shown) [L14] was tested, and the “Inhibition at 30 µM” value was 38 ± 12%. In the case of `Cc1noc(CCC(=O)N2CCC(CSc3ccccc3)C2)n1` (stereo not shown) [L15], the “Inhibition at 30 µM” value is reported as 37 ± 6%. For `O=C(Nc1cccc(OCc2ccccn2)c1)c1cccc(F)c1` [L16], the “Inhibition at 30 µM” value was 36 ± 1%. With `CSc1ccc(C(=O)N(C)Cc2nc3ccccc3[nH]2)o1` [L17] the “Inhibition at 30 µM” value was 35 ± 3%. With `O=C(NCc1cc(-c2ccco2)on1)c1cccc(Cl)c1` [L18] the “Inhibition at 30 µM” value was 34 ± 1%. With `O=C(NCc1ccccc1)c1csc(COc2ccc(F)cc2)n1` [L19] the “Inhibition at 30 µM” value was 34 ± 3%. `CN(Cc1cnn(-c2ccccc2)c1)C(=O)c1cc(-c2ccco2)on1` [L20] was tested, and the “Inhibition at 30 µM” value was 34 ± 5%. With `O=C(CSc1n[nH]c(-c2cccnc2)n1)Nc1cccc(Cl)c1` [L21] the “Inhibition at 30 µM” value was 33 ± 12%. With `O=C(Nc1cccc(F)c1)C1CCN(c2ccc(F)cc2)C1=O` (stereo not shown) [L23] the “Inhibition at 30 µM” value was 32 ± 1%. With `O=C(CCc1cccnc1)N1CCCC(COc2cccc(F)c2)C1` (stereo not shown) [L24] the “Inhibition at 30 µM” value was 32 ± 3%. In the case of `Cc1ccc(C2CC2c2nc(CNC(=O)c3ccccc3)no2)s1` (stereo not shown) [L26], the “Inhibition at 30 µM” value is reported as 31 ± 7%. With `O=C(NCc1cccnc1)c1ccc(COc2ccccc2)o1` [L27] the “Inhibition at 30 µM” value was 31 ± 7%. `O=C(NCc1ccnc(-n2cccn2)c1)c1ccc(Br)o1` [L29] was tested, and the “Inhibition at 30 µM” value was 30 ± 9%. `Cc1ccc(Cn2ccnc2C(=O)Nc2ccccc2)cc1` [L30] was tested, and the “Inhibition at 30 µM” value was 30 ± 5%. For `Cc1ccc(Cn2cccc2-c2nc(-c3ccncc3)no2)cc1` [L31], the “Inhibition at 30 µM” value was 29 ± 4%. For `O=C(CCc1ccncc1)N1CC(n2cc(-c3ccccc3)nn2)C1` [L32], the “Inhibition at 30 µM” value was 29 ± 3%. `CCCn1cc(C(=O)Nc2cccc(NC(=O)c3ccncc3)c2)cn1` [L34] was tested, and the “Inhibition at 30 µM” value was 29 ± 1%. In the case of `c1ccc(Cc2n[nH]c(-c3ccncc3)n2)cc1` [L36], the “Inhibition at 30 µM” value is reported as 29 ± 8%. For `CCc1noc(COc2cccc(NC(=O)c3ccccc3)c2)n1` [L37], the “Inhibition at 30 µM” value was 29 ± 4%. For `O=C(Nc1ccccn1)c1cc2occc2n1Cc1ccccc1` [L38], the “Inhibition at 30 µM” value was 27 ± 1%. For `O=C(CSc1ccc(-n2cccn2)nn1)Nc1ccccc1Cl` [L39], the “Inhibition at 30 µM” value was 27 ± 11%. With `CN(Cc1cc(-c2ccccc2)no1)C(=O)CCOc1ccccc1` [L40] the “Inhibition at 30 µM” value was 27 ± 3%. In the case of `CC(NC(=O)COc1ccc(Cl)cc1)C(=O)Nc1ccccc1` (stereo not shown) [L41], the “Inhibition at 30 µM” value is reported as 26 ± 2%. `Cc1ccc(F)c(NC(=O)C2CC(=O)N(CCc3ccccc3)C2)c1` (stereo not shown) [L42] was tested, and the “Inhibition at 30 µM” value was 26 ± 5%. With `c1ccc(OCc2noc(NCc3nc4ccccc4s3)n2)cc1` [L43] the “Inhibition at 30 µM” value was 26 ± 12%. `Cc1cccc(-c2c[nH]c(C3CCCN3C(=O)c3ccccn3)n2)c1` (stereo not shown) [L44] was tested, and the “Inhibition at 30 µM” value was 26 ± 13%. For `O=C(COc1ccccc1)Nc1cccc(NC(=O)c2ccncc2)c1` [L45], the “Inhibition at 30 µM” value was 25 ± 7%. With `O=C(NCc1ccnc(OCc2ccccc2)c1)c1cccc(F)c1` [L46] the “Inhibition at 30 µM” value was 24 ± 3%. In the case of `CCCOc1ccc(N2CC(C(=O)Nc3ccccn3)CC2=O)cc1` (stereo not shown) [L47], the “Inhibition at 30 µM” value is reported as 24 ± 3%. For `Cc1csc(CNC(=O)N2CCC(COCc3ccccc3)C2)n1` (stereo not shown) [L48], the “Inhibition at 30 µM” value was 23 ± 4%. With `O=C(c1ccc(Cl)s1)N1CC(c2nc(-c3ccncc3)no2)C1` [L49] the “Inhibition at 30 µM” value was 22 ± 1%.

Same assay, conditions: Table S1; radioligand displacement; mean ± SEM of two experiments
For `CC(CCOc1ccccc1)c1nc(-c2ccc(C#N)cn2)no1` (stereo not shown) [L8], the Ki was 11 ± 1 µM.

Same assay, conditions: radioligand displacement; mean ± SEM of two experiments
Work on `O=C(Nc1cccc(Cn2ccnc2)c1)c1cccc(F)c1` [L9] yielded a Ki of 16 µM.
